Experimental data published in patent publication US11857570B2, “Natural composition for use in gynecology” (Organicare LLC, priority 2017, dated 2024).

Legend:
bacterial vaginosis = conditions: at 3 months; cited from earlier work
[1] = test system: transformed human vaginal epithelial cells (Episkin); test: Cell survival test (MTT) with three-dimensional vaginal epithelium reconstructed in vitro; assay type: cell-based
Protocol: The potential skin irritation on the vaginal epithelium was evaluated in vitro by means of a cytotoxicity assay: cell survival test with three-dimensional vaginal epithelium reconstructed in vitro (MTT test). The three-dimensional cell model used in the test consists of 0.5 cm^2 diameter units of cultures of transformed human vaginal epithelial cells, maintained for 5 days in a chemically defined culture medium and in contact with air on inert polycarbonate filters. The model was purchased from Episkin® (Lyons, lot 16-HVE-015).
Sodium lauryl sulphate (SLS) dissolved at 0.5% by weight in a phosphate buffer (Euroclone) was used as a positive control. The phosphate buffer was used on its own as a negative control. Exposure took place for 1 and 6 hours at about 37° C., 5% CO2. At the end of exposure, the epithelium was washed with phosphate buffer. The epithelium was incubated for 3 h at 37° C. with a 1 mg/ml solution of MTT (3-[4,5-dimethylthiazol-2-yl]-2,5-diphenyltetrazoliumbromide).
The solution was subsequently removed and replaced with isopropanol, with […]
successive hours of incubation at room temperature. 2 aliquots of each epithelium were transferred into a 96-well plate for the absorbance reading, which was carried out at a wavelength of 570 nm with a Tecan Sunrise remote colorimeter, equipped with a plate reader.
Through the creation of a dose-response curve, the cytotoxicity data obtained with the MTT test (Table 5) make it possible to determine the theoretical value of ET50, that is, the time in minutes that induces a 50% reduction in cell viability in the epithelium compared to untreatedcells.

SMILES | risk of relapse (bacterial vaginosis) | % mean cell viability 1 h treatment ([1]; MTT, 1 h exposure, reconstructed human vaginal epithelium) | % mean cell viability 6 h treatment ([1]; MTT, 6 h exposure, reconstructed human vaginal epithelium) | ET50 ([1]; time that induces a 50% reduction in cell viability compared to untreated cells)
Cc1ncc([N+](=O)[O-])n1CCO [metronidazole] | 33 % of women | – | – | –
CCCCCCCCCCCCOS(=O)(=O)[O-].[Na+] [Positive control, Sodium lauryl sulphate] | – | 8.26% | 6.54% | 32.70 min
